Assays:
[1] = system: Arabidopsis root exudates; assay: LC-MS of root exudates of ascr #18-treated Arabidopsis seedlings; assay type: in vivo, Arabidopsis thaliana
Method: Data are average±SEM (n=6), n.d.=not detected. […] Exudates from approximately 40 seedlings were collected in distilled water and pooled. Abundances of ascarosides are shown as the peak area, as measured by LC-MS. Data are average±SEM (n=3); n.d.=not detected. FIGS. 5C and 5D show the relative abundances of ascarosides in root exudates of eight-day old tomato seedlings treated with 10 nM (FIG. 5C) or 1000 nM (FIG. 5D) ascr #18 for 6 hours. Exudates from approximately 10 seedlings were collected in distilled water and pooled. Abundances of ascarosides are shown as the peak area, as measured by LC-MS. Data are average±SEM (n=3); n.d.=not detected. FIG. 5E provides the relative abundances of ascr #10, ascr #1, and ascr #9 in the growth media of eight-day old tomato seedlings supplemented with 1 μM ascr #18. Ten-gram media samples were collected at different time points over a 48 hour period for metabolome extraction. Abundances of ascarosides are shown as the peak area, as measured by LC-MS.
To test this possibility, root-secreted metabolites of ascr #18- and mock-treated Arabidopsis were compared (FIG. 5A). For this experiment, 10-day old Arabidopsis seedlings were treated in growth media supplemented with ascr #18 for 6 hours prior to collection of exudates from roots submerged in water. […] Analogous results were obtained in experiments with tomato roots (FIG. 5C, 5D).

M. incognita J2 larvae = assay: Quantitative chemotaxis population assay (worm attraction assay); assay type: in vivo, Meloidogyne incognita; conditions: 6-cm Petri dish, larvae counted after 4 hours
Method: FIG. 6A provides a graph of the number of nematodes touching the root tips of Arabidopsis wildtype and acx1acx5 treated with 50 nM ascr #18 or ascr #9 for 48 hours before transfer into 12-well plates containing Pluronic® F-127 gel with ˜200 freshly hatched M. incognita J2 larvae. Larvae touching the terminal part of roots were counted at 6 hours after seedling transfer. Data are average±s.d. (n=12). FIG. 6B provides a schematic of a Petri dish as shown in the plate layout. For FIG. 6C, the indicated concentrations of ascr #18, ascr #9, or ascr #18/ascr #9 mixtures were placed on one side with mock solutions on the other side of the 6-cm Petri dish. Subsequently, approximately 100 freshly hatched M. incognita J2 larvae were placed in the center of the plate. Larvae in the indicated scoring areas were counted after 4 hours. Data are averages±s.d. (n=12), **P≤0.003; two-tailed t-test. FIG. 6D provides the attraction index for different concentrations of ascr #18, ascr #9, or ascr #18/ascr #9 mixtures measured using the layout shown in FIG. 6C. Data are averages±SEM (n=12), **P≤0.002; two-tailed t-test.
Ascarosides were dissolved in ethanol to prepare millimolar stock solutions. […]
Chemotaxis plates were prepared by pouring 8 mL of 2% bacto-agar (BD Biosciences) into 6-cm Petri dishes. […] Worms that remained in the center 0.5-cm-wide strip were not counted. […]

[2] = system: Arabidopsis wildtype and ibr10, ech2, ech2ibr10, or acx1acx5 mutants; assay type: in vivo, Arabidopsis thaliana; conditions: for ascaroside levels in ascr #18-treated acx1acx5 mutant compared with wildtype: roots treated with 1 μM ascr #18
Method: FIG. 3A provides a comparison of peroxisomal β-oxidation (pβo) pathways and associated enzymes involved in the conversion of indole-3-butyric acid (IBA)-to-indole acetic acid (IAA) in Arabidopsis and ascaroside biosynthesis in C. elegans. FIG. 3B provides LC-MS analysis of Arabidopsis seedlings treated with 1 μM ascr #18 for 24 hours before sample extraction, comparing ascr #9 production in wildtype and ibr10, ech2, ech2ibr10, or acx1acx5 mutants. FIG. 3C provides a comparison of ascaroside abundances in Arabidopsis wildtype and acx1acx5 roots treated with 1 μM ascr #18. Data are averages±SEM (n=5); n.d.=not detected. FIG. 3D provides RNAseq analysis of ten day-old Arabidopsis wildtype and acx1acx5 mutant roots, plotted as transcript abundance. Data are averages±s.d (n=6).
Arabidopsis thaliana mutant genotypes in the Col-0 background, ibr10-1, ech2-1, ibr10-1ech2-1, and acx1-2acx5-1, were obtained from Rice University (Houston, TX) (Strader, et al. (2011) Plant Cell 23:984-999; Adham, et al. (2005) Plant J. 41:859-874).
To test whether ascr #18 is metabolized via pβo in plants, Arabidopsis mutants impaired in key enzymes of this pathway were analyzed (FIG. 3B). […] In contrast, two other putative po genes, ibr10 and ech2, a putative enoyl-CoA hydratases (Strader, et al. (2011) Plant Cell 23:984-999; Adham, et al. (2005) Plant J. 41:859-874; Zolman, et al. (2008) Genetics 180(1): 237-51), are not required for ascr #18 metabolism in Arabidopsis. ACXs participate in the […] step of pβo by introducing α,β-unsaturation in the side-chain (Von Reuss, et al. (2012) J. Am. Chem. Soc. 134:1817-1824; Strader, et al. (2011) Plant Cell 23:984-999). […] These observations indicate that ascr #18 metabolism in plants into shorter-chained ascarosides proceeds via pβo, and that ACX1 and/or ACX5 are strictly required for chain shortening of ascr #10, whereas the first chain-shortening step from ascr #18 to ascr #10 may involve additional acyl-CoA oxidases.

| SMILES | ascarosides in root exudates of acx1acx5 ([1]; acx1acx5 seedlings, 10 nM ascr #18 for 6 hours) | chemotaxis behavior of M. incognita J2 larvae (attraction index) (M. incognita J2 larvae) | metabolism of ascr #18 into shorter-chained ascarosides ([2]; acx1acx5 mutant, 1 μM ascr #18, 24 hours) | requirement of ibr10 and ech2 for ascr #18 metabolism ([2]; ibr10, ech2 mutants, 1 μM ascr #18, 24 hours) | ascaroside levels in ascr #18-treated acx1acx5 mutant compared with wildtype [2] | relative abundance among root-excreted ascr #18 metabolites ([1]; Arabidopsis) | secretion of ascr #18 metabolites via roots ([1]; ascr #18-treated wildtype, 6 hours treatment) |
| --- | --- | --- | --- | --- | --- | --- | --- |
| CC1O[C@@H](O[C@@H](C)CCCCCCCCC(=O)O)C(O)C[C@H]1O (stereo in doubt) [ascr #18, (10R)-(3′R,5′R-dihydroxy-6′S-methyl-(2H)-tetrahydropyran-2-yloxy)-undecanoic acid] | larger amounts of residual ascr #18 than in wildtype | no significant effect | dramatically reduced | not required | elevated levels |  |  |
| C[C@H](CCC(=O)O)O[C@@H]1O[C@@H](C)[C@H](O)C[C@H]1O [ascr #9] |  | no significant effect |  |  | not detected | most abundant | secretion |

From patent US20260000079A1, “COMPOSITIONS AND METHODS FOR MODULATING IMMUNITY IN PLANTS” (BOYCE THOMPSON INSTITUTE FOR PLANT RESEARCH, INC., priority 2019, published 2026)
